From patent US10757944B2, “Ozone treatment for elimination of pathogens” (priority 2016, dated 2020)
Where “and” joins values, the source holds several entries; their conditions need not be identical. Equal entries are not always repeated.

What was measured:
Type in all cases: cell-based
mold and yeast = assay: Additional ozone exposure tests on cannabis flower or trim, mold and yeast CFU; settings: ozone 200 ppm
Experimental: Some additional ozone exposure tests were performed with cannabis flower or trim on a variety of commercially available strains using an embodiment of a disclosed pathogen reduction device. In each experiment (disclosed in Table 6) a reduction of mold and yeast CFU/g was measured (as disclosed above using 3M® Petrifilm® Rapid Yeast and Mold Count Plate and Product Instruction) after treating different weights of cannabis with an ozone concentration of 200 ppm for between 20 and 60 minutes.

[1] = system: Escherichia Coli, Salmonella enterica sv typhimurium, Listeria monocytogenes and Candida albicans; assay: Gaseous ozone treatment of inoculated Cannabis, summary statements for all organisms
Experimental: (§1) Cannabis plants were individually contaminated with Escherichia Coli, Salmonella enterica sv typhimurium, Listeria monocytogenes and Candida albicans then exposed to gaseous ozone for 20 minutes at 100 ppm and 200 ppm.
(§2) Pure cultures of Escherichia coli and Listeria monocytogenes provided by the American Type Culture Collection (ATCC) were grown in selective media broths. The Candida albicans provided by ATCC was grown on potato dextrose agar, and after significant growth was achieved, the colonies were transferred and suspended in Butterfield's buffer. After significant turbidity in each broth of pathogens was observed, they, along with Butterfield's buffer with the suspended Candida albicans, were used to inoculate individual Cannabis samples. This process created four individual populations of Cannabis with each population being contaminated with one of the four organisms grown. After inoculating the samples they were allowed to dry overnight by placing them out in the open at room temperature. Each population of Cannabis was then divided into smaller individual 2-4 gram samples which were used in the tests. One test consisted of placing nearly half of the smaller samples into an ozone gas chamber for 20 minutes at an approximate ozone concentration of 100 ppm. The remaining samples were set aside to be used as controls.
(§3) Three samples for each organism were tested at each of the concentrations. The control samples were placed into the same chamber for 20 minutes with an ozone concentration of 0 ppm. All samples were then analyzed for their microbial counts by first generating serial dilution using Butterfield's buffer as the diluent for each sample then individually plating the resultant dilutions onto selective media appropriate for the organism being analyzed. After the required incubation temperatures and times were completed, the organisms on the plates were counted. For each set of dilutions of a given sample and starting at the plate representing the lowest dilution ratio, the first plate that was countable was counted and the result was recorded. […]

Escherichia Coli = assay: Gaseous ozone treatment of Cannabis inoculated with E. Coli, microbial count
Experimental: as §1
Pure cultures of Escherichia coli and Listeria monocytogenes provided by the American Type Culture Collection (ATCC) were grown in selective media broths. The Candida albicans provided by ATCC was grown on potato dextrose agar, and after significant growth was achieved, the colonies were transferred and suspended in Butterfield's buffer. After significant turbidity in each broth of pathogens was observed, they, along with Butterfield's buffer with the suspended Candida albicans, were used to inoculate individual Cannabis samples. […]
as §3, with “The control samples were placed into the same chamber for 20 minutes with an ozone concentration of 0 ppm.” left out

Candida albicans = assay: Gaseous ozone treatment of Cannabis inoculated with Candida, microbial count; settings: for Microbial Count: 20 min
Experimental: as §1, §2
(§4) Three samples for each organism were tested at each of the concentrations. The control samples were placed into the same chamber for 20 minutes with an ozone concentration of 0 ppm. All samples were then analyzed for their microbial counts by first generating serial dilution using Butterfield's buffer as the diluent for each sample then individually plating the resultant dilutions onto selective media appropriate for the organism being analyzed. After the required incubation temperatures and times were completed, the organisms on the plates were counted. For each set of dilutions of a given sample and starting at the plate representing the lowest dilution ratio, the first plate that was countable was counted and the result was recorded.
(§5) Testing occurred over two days. The first day involved testing one sample of Cannabis for each organism at an ozone concentration of 100 ppm and another test of only Listeria at 50 ppm. Additional testing involving subsequent trials for each organism at ozone concentrations of 100 ppm and 200 ppm were conducted on the second day of testing.
(§6) The ozone concentration in the ozone chamber was kept at a range approximating the desired 100 ppm and 200 ppm concentrations. For instance, when the desired concentration was 100 ppm, the actual range of concentrations was 98 ppm to 106 ppm, and when the desired concentration was 200 ppm, the actual range of concentration was 198 ppm to 204 ppm. […]

total yeast and mold = assay: Total yeast and mold on homogenized cannabis flower after ozone exposure (3M Petrifilm Rapid Yeast and Mold Count Plate); settings: for Average CFU/g (all samples tested) of yeast and mold remaining: 0 minutes: 68,000
Experimental: The ability of ozone to reduce fungus using an embodiment of a disclosed pathogen reduction device was also evaluated. In this series of experiments, homogenized cannabis flower with a total yeast and mold bio-burden exceeding 10,000 CFU/g was exposed to ozone using an embodiment of a disclosed pathogen reduction device. 20 gram samples of the cannabis flower were separated into two groups (10 grams a group) and placed on different racks within the pathogen reduction device. One 10 gram sample was placed on an industrial grade aluminum rack with air holes in order to maximize ozone flow and increase the surface area of the flower that would be exposed to ozone. A second 10 gram sample was place directly onto a rack screen (aluminum foil with holes pocked into it); however, because some of the homogenized cannabis flower was finer than the rack screen, some flower from the second 10 gram sample passed through the rack screen and landed on the lowest mesh screen in the device, thereby, creating a third sample for testing.
20 gram samples as described above were exposed to ozone for 0 minutes (control), 20 minutes, 30 minutes, 45 minutes, and 60 minutes at an ozone concentration of 200 ppm. Six 1 gram samples from each treatment time were processed and evaluated using a 3M® Petrifilm® Rapid Yeast and Mold Count Plate and accompanying Product Instructions. The ozone treated samples were homogenized, diluted with buffer (distilled water), and then 1 milliliter suspension samples were dispensed onto 3M® Petrifilm® Rapid Yeast and Mold Count Plates. The plates were incubated at 27° C. for greater than 60 hours in order to quantify the total yeast and mold remaining on the cannabis flower following exposure to ozone. Three of the six 1 gram samples were taken from the flower placed on the industrial grade aluminum rack as detailed above. Two of the 1 gram samples were taken from the flower placed directly on the screen. The final 1 gram sample was collected from the lowest mesh screen in the device where the finest flower collected after falling through the rack screen.

Listeria monocytogenes = assay: Gaseous ozone treatment of Cannabis inoculated with Listeria, microbial count; settings: for kill of bacterial pathogen (in words): 20 minutes
Experimental: as §1, §2, §4, §5
The ozone concentration in the ozone chamber was kept at a range approximating the desired 100 ppm and 200 ppm concentrations. For instance, when the desired concentration was 100 ppm, the actual range of concentrations was 98 ppm to 106 ppm, and when the desired concentration was 200 ppm, the actual range of concentration was 198 ppm to 204 ppm. While the samples were being placed into the chamber ozone gas was lost.

[2] = system: Salmonella enterica sv typhimurium; assay: Gaseous ozone treatment of Cannabis inoculated with Salmonella, microbial count; settings: for kill of bacterial pathogen (in words): 20 minutes; for Microbial Count: 20 min
Experimental: as §1, §2, §4, §5, §6

[3] = 100 ppm ozone, compared with 200 ppm

O=[O+][O-] [ozone]
Ending CFU (mold and yeast; Flower, Hybrid, 5 lbs, 60:00 min, Initial CFU 77,000): 4500 CFU
Ending CFU (mold and yeast; Flower, Hybrid/Indica, 1 lb, 45:00 min, Initial CFU 2,200): 220 CFU
Ending CFU (mold and yeast; Flower, Hybrid/Indica, 6 lbs, 25:00 min, Initial CFU 51,750): 30,000-32,000 CFU
Ending CFU (mold and yeast; Flower, Hybrid/Indica, weight NA, 60:00 min, Initial CFU 110,000): 3,000 CFU
Ending CFU (mold and yeast; Flower, Hybrid/Sativa, 1 lb, 20:00 min, Initial CFU 100,000): 5,400-5,500 CFU
Ending CFU (mold and yeast; Flower, Indica, 3 lbs, 60:00 min, Initial CFU 320,000): 91,000 CFU
Ending CFU (mold and yeast; Trim, Hybrid/Indica, 6 lbs, 25:00 min, Initial CFU 17,000): 800-11,000 CFU
Ending CFU (mold and yeast; Trim, Hybrid/Sativa, 3 lbs, 60:00 min, Initial CFU 50,000): 3,000 CFU
kill of all of the organisms involved in the test (in words) ([1]; 100 ppm ozone, first day (Table 1)): significant kill
kill of all organisms compared to the controls (in words) ([1]; 100 ppm ozone, second day (Table 2)): significant kill
kills at 200 ppm compared to the kills at 100 ppm (in words) ([1]; 200 ppm ozone, second day (Table 2)): amount of kills increased
kill of Escherichia coli (in words) (Escherichia Coli; both 100 ppm and 200 ppm ozone, 20 minutes): significantly vulnerable
Microbial Count (Escherichia Coli; first day, target ozone 100 ppm (actual 95-102 ppm), 20 min, control (0 ppm) 1.2 * 10^11): 2.8 * 10^10 cfu/g
effect of ozone treatment on Candida albicans (in words) (Candida albicans; 100 ppm and 200 ppm ozone, 20 minutes): limited
microbial count of 200 ppm trials compared with the control group (in words) (Candida albicans; 200 ppm ozone, 20 minutes, FIG. 10): average reduced microbial count
Microbial Count (Candida albicans; listed as 'Mold Treated', first day, target ozone 100 ppm (actual 95-102 ppm), Mold Control (0 ppm) 1.4 * 10^12): 1.9 * 10^11 cfu/g
Microbial Count (Candida albicans; second day, ozone 100 ppm (98-106 ppm), Trials 2-3, control 5.0 * 10^5): 2.7 * 10^5 cfu/g and 1.5 * 10^4 cfu/g
decrease in total yeast and mold bio-burden (total yeast and mold; 200 ppm ozone for 60 minutes): 92%
average Colony Forming Units/gram after treatment (total yeast and mold; 200 ppm ozone for 60 minutes, dropping from an average of 82,000 CFU/g): 7,000 CFR/g
Average CFU/g (all samples tested) of yeast and mold remaining (total yeast and mold; 200 ppm ozone, 20 minutes): 18,000 CFU/g
CFU/g (Test 1) (total yeast and mold; 200 ppm ozone, 20 minutes, Industrial grade aluminum rack (samples 4-6), T0: 25,000, 60,000, 82,000): 19,000 CFU/g and 12,000 CFU/g and 21,000 CFU/g
CFU/g (Test 2) (total yeast and mold; 200 ppm ozone, 20 minutes, Industrial grade aluminum rack (samples 4-6), T0: 53,000, 140,000, 130,000): 23,000 CFU/g and 18,000 CFU/g and 21,000 CFU/g
CFU/g (Test 2) (total yeast and mold; 200 ppm ozone, 20 minutes, Lowest mesh screen (sample 1), T0: 61,000): 24,000 CFU/g
CFU/g (Test 1) (total yeast and mold; 200 ppm ozone, 20 minutes, Lowest mesh screen (sample 1), T0: 77,000): 18,000 CFU/g
CFU/g (Test 2) (total yeast and mold; 200 ppm ozone, 20 minutes, Rack screen (samples 2-3), T0: 28,000, 77,000): 16,000 CFU/g and 17,000 CFU/g
CFU/g (Test 1) (total yeast and mold; 200 ppm ozone, 20 minutes, Rack screen (samples 2-3), T0: 30,000, 50,000): 15,000 CFU/g
Average CFU/g (all samples tested) of yeast and mold remaining (total yeast and mold; 200 ppm ozone, 30 minutes): 17,000 CFU/g
CFU/g (Test 1) (total yeast and mold; 200 ppm ozone, 30 minutes, Industrial grade aluminum rack (samples 4-6), T0: 25,000, 60,000, 82,000): 16,000 CFU/g and 11,000 CFU/g and 20,000 CFU/g
CFU/g (Test 2) (total yeast and mold; 200 ppm ozone, 30 minutes, Industrial grade aluminum rack (samples 4-6), T0: 53,000, 140,000, 130,000): 15,000 CFU/g and 14,000 CFU/g and 20,000 CFU/g
CFU/g (Test 2) (total yeast and mold; 200 ppm ozone, 30 minutes, Lowest mesh screen (sample 1), T0: 61,000): 20,000 CFU/g
CFU/g (Test 1) (total yeast and mold; 200 ppm ozone, 30 minutes, Lowest mesh screen (sample 1), T0: 77,000): 16,000 CFU/g
CFU/g (Test 2) (total yeast and mold; 200 ppm ozone, 30 minutes, Rack screen (samples 2-3), T0: 28,000, 77,000): 30,000 CFU/g and 16,000 CFU/g
CFU/g (Test 1) (total yeast and mold; 200 ppm ozone, 30 minutes, Rack screen (samples 2-3), T0: 30,000, 50,000): 18,000 CFU/g and 13,000 CFU/g
Average CFU/g (all samples tested) of yeast and mold remaining (total yeast and mold; 200 ppm ozone, 45 minutes): 16,000 CFU/g
CFU/g (Test 2) (total yeast and mold; 200 ppm ozone, 45 minutes, Lowest mesh screen (sample 1), T0: 61,000): 11,000 CFU/g
CFU/g (Test 1) (total yeast and mold; 200 ppm ozone, 45 minutes, Lowest mesh screen (sample 1), T0: 77,000): 7,100 CFU/g
CFU/g (Test 2) (total yeast and mold; 200 ppm ozone, 45 minutes, Rack screen (samples 2-3), T0: 28,000, 77,000): 15,000 CFU/g and 12,000 CFU/g
CFU/g (Test 1) (total yeast and mold; 200 ppm ozone, 45 minutes, Rack screen (samples 2-3), T0: 30,000, 50,000): 13,000 CFU/g and 11,000 CFU/g
Average CFU/g (all samples tested) of yeast and mold remaining (total yeast and mold; 200 ppm ozone, 60 minutes): 6,000 CFU/g
CFU/g (Test 2) (total yeast and mold; 200 ppm ozone, 60 minutes, Lowest mesh screen (sample 1), T0: 61,000): 9,000 CFU/g
CFU/g (Test 1) (total yeast and mold; 200 ppm ozone, 60 minutes, Lowest mesh screen (sample 1), T0: 77,000): 7,400 CFU/g
CFU/g (Test 2) (total yeast and mold; 200 ppm ozone, 60 minutes, Rack screen (samples 2-3), T0: 28,000, 77,000): 10,000 CFU/g and 6,300 CFU/g
CFU/g (Test 1) (total yeast and mold; 200 ppm ozone, 60 minutes, Rack screen (samples 2-3), T0: 30,000, 50,000): 6,000 CFU/g and 7,800 CFU/g
additional reduction in CFU/g (total yeast and mold; 200 ppm ozone, after the first 20 minutes and up until 45 minutes): 1.1%
another reduction in CFU/g (total yeast and mold; 200 ppm ozone, between a 45 minute and 60 minute exposure): 14.1%
yeast and mold across all 6 samples following treatment (total yeast and mold; 200 ppm ozone, from roughly 10^5 CFU/g): below 10,000 CFU/g
inhibition of fungi by ozone exposure (in words) (total yeast and mold; Table 4, 200 ppm ozone, 20-60 minutes): strongly inhibited
difference between the control and the treated sample (in words) (Listeria monocytogenes; 50 ppm ozone, 20 min, first day): no statistically significant difference
kill of bacterial pathogen (in words) (Listeria monocytogenes; [3]): lesser kill rate
kill of bacterial pathogen (in words) (Listeria monocytogenes; 200 ppm ozone): Significant kills
Microbial Count (Listeria monocytogenes; first day, target ozone 50 ppm (actual 46-52 ppm), 20 min, control (0 ppm) 7.0 * 10^2): 2.6 * 10^2 cfu/g
Microbial Count (Listeria monocytogenes; first day, target ozone 100 ppm (actual 95-102 ppm), 20 min, control (0 ppm) 1.9 * 10^7): 4.8 * 10^5 cfu/g
Microbial Count (Listeria monocytogenes; second day, ozone 100 ppm (98-106 ppm), 20 min, Trials 2-3, control 2.0 * 10^4): 2.0 * 10^3 cfu/g and 1.0 * 10^3 cfu/g
kill of bacterial pathogen (in words) [2, 3]: lesser kill rate
kill of bacterial pathogen (in words) ([2]; 200 ppm ozone): Significant kills
Microbial Count ([2]; first day, target ozone 100 ppm (actual 95-102 ppm), control (0 ppm) 1.1 * 10^11): 1.7 * 10^10 cfu/g
Microbial Count ([2]; second day, ozone 100 ppm (98-106 ppm), Trials 2-3, control 4.5 * 10^4): 1.1 * 10^4 cfu/g and 1.3 * 10^4 cfu/g
